Earlier results as cited in patent US11607386B2, “Liposomes encapsulating adenosine” (New York University, priority 2019, dated 2023).

How the values were obtained:
[1] = not given; remark: listed apart in the source

solubility of adenosine in water: 7000 µg/mL
half-life [1]: mere seconds
Compound: Nc1ncnc2c1ncn2[C@@H]1O[C@H](CO)[C@@H](O)[C@H]1O [adenosine]
